How the values were obtained:
[1] = test system: human dopaminergic neurons (iCell DopaNeurons); assay: MPP+-induced neurotoxicity: neurite outgrowth (neurite length, branch points) on iCell DopaNeurons; format: cell-based; conditions: for Neurite length, Mean: Table 7.1, plate 1
From the text: MPP+(1-methyl-4-phenylpyridinium) is a known neurotoxin which acts by interfering with oxidative phosphorylation in mitochondria by inhibiting complex I, a protein in the membrane of mitochondria in dopaminergic neurons in the substantia nigra.(94) The inhibition of mitochondrial function leads to the depletion of ATP and eventual cell death. MPP+ ultimately causes Parkinsonism in primates by killing certain dopamine-producing neurons in the substantia nigra.
iCell DOPA neurons are neural floor plate-derived midbrain dopaminergic neurons generated from human induced pluripotent stem cells (iPSCs). Dopaminergic neurons, specifically those located in the floor plate-derived midbrain are implicated in neurological disorders such as Parkinson's disease, MSA and DLBD among others. […] The iCellDopa neurons were supplied from FUJIFILM Cellular Dynamics.
(§1) Procedure. iCell DOPA neurons were thawed and cultured following the provider's instructions in Brainphys medium+provided supplements+1% N2 supplement (Stemcell Technologies)+penicillin/streptomycin+Laminin. They were plated at 20000 cells per well of a 384 well plate (pre-coated with poly-D-lysine and Laminin) in 70 μL of growth medium. Cells were incubated at 37° ° C./5% CO2 in a humidified cell culture incubator. Half of the culture medium was changed twice a week.
(§2) MPP+-induced neurotoxicity: 24 hours after neuronal plating, half of the medium was removed and the test compounds were applied with MPP+ treatment, both concentrated at 4×, were added to the wells. For each well, five aliquots were added, corresponding columns A-E in Table 3. In each row, either the compound indicated dissolved in its vehicle noted in Table 2 was added, or only a vehicle was added as indicated. Column E is an indicator of whether MPP+ was added. If not, only the medium was added.
(§3) For the evaluation of conditions 8, 10,12, 22, 24, Neurite outgrowth was followed for subsequent 48 hours using an Incucyte Zoom platform with one phase contrast image every 4 hours, using a 20× objective. After 48 hours, the medium containing test compounds and MPP+ was removed and replaced by fresh medium containing a fluorescent cytolysis marker (red fluorescence) and a live cell marker (green fluorescence). For the evaluation of conditions 10, 12, 24, 38, 40, 51-53, Neurite outgrowth was followed similarly for subsequent 72 hours after MPP+ was added.
Assay endpoints and data analysis. Phase contrast images were analyzed at each time point to determine the neurite length and number of branch points per mm^2. Kinetic data was plotted and kinetics were normalized by subtracting the value of the first data point (at time of treatment), allowing to measure changes in neurite outgrowth only from the onset of the treatment, starting at zero. Area Under Curve (AUC) of kinetic data was obtained and used for plotting compound's effects and perform statistical analyzes.

[2] = test system: human dopaminergic neurons (iCell DopaNeurons); assay: MPP+-induced neurotoxicity: cytolysis of iCell DopaNeurons; format: cell-based; conditions: with MPP+ 100 μM
Protocol: Three different measurements were made in the experiments. Neurite length in mm was measured, which is a measure of increase in dendril length of neurons. […] Secondly, neurite branching was measured. […] Thirdly, cytolysis of the cells was measured. […] Experimental conditions were measured relative to the results of healthy cells in the studies.
as §1, §2, §3
Data was normalized to control conditions as there is basal cytolysis in the cell culture after thawing.

[3] = test system: iPSC-derived dopaminergic (DA) neurons harboring triplication of the α-synuclein locus; assay: α-Synuclein triplication cell line: neurofilament heavy chain signal intensity; format: cell-based, human; conditions: normalized to Hoechst signal; three months treatment; PBA 500 μM, TUDCA 50 μM, EXD 100 nM
Protocol: We used 12 replicas for each experimental condition and 16 replicas for control (untreated cells). […] Cells were washed three times with warm phosphate buffered saline (PBS) and imaged immediately at 20× magnification on an imageXpress Micro confocal at 37° C. and 5% CO2.
Following imaging, cells were immediately fixed with 4% paraformaldehyde for 30 minutes at room temperature, washed three times with PBS, permeabilized with 0.2% Triton X-100 for 30 minutes, blocked with Odyssey Blocking Buffer for 60 minutes, and incubated overnight at 4° C. with primary antibodies, neurofilament (1:1000, Synaptic Systems 171 002) and LB509 (1:100, Abcam ab27766). Cells were washed 3× with 0.1% Tween-20 in PBS and incubated with Alexa Fluor Goat Anti-Rabbit 790 (1:1000) and Goat Anti-Mouse 647 (1:1000) for 1 hour at RT, before washing 3× with 0.1% Tween-20 in PBS and imaging with Sapphire Biomolecular Imager. Neurofilament heavy chain signal intensity was normalized to fixed Hoechst signal measured with Spectra Gemini plate reader (ex=350 nm, em=461 nm), using Hoechst 33342 nucleic acid stain from Invitrogen according to the manufacturer's instructions. Neurofilaments (NF) are located mostly in axons and indicate roughly the content of neurites. If neurodegeneration is halted or reversed, NF signal increases because it correlates with the number and/or length of neurites in the well.

[4] = test system: IL-6 mediated inflammation in microglial cells; assay: LPS/ATP-induced neuroinflammation in microglia: IL-6 secretion (Luminex); format: cell-based, human; conditions: for IL-6 in supernatant, Mean ± S.D. / IL-6 in supernatant, Replicate 1 / IL-6 in supernatant, Replicate 2 / IL-6 in supernatant, Replicate 3: LPS (100 ng/mL) + ATP (5 mM), six hours after LPS
From the text: (§4) In addition to the studies discussed above assessing activity of combinations of drugs on MPP+-induced neurodegeneration toxicity on human dopaminergic neurons as well as on a human iPSC cell line harboring a triplication mutation in alpha-synuclein gene, and measuring neuronal growth, neurite branching and neurofilament heavy chain, we also assessed combinations of drugs in reducing lipopolysaccharide (LPS, from E. coli)-induced neuroinflammation in human microglia cells.
(§5) Lipopolysaccharides are important outer membrane components of gram-negative bacteria such as E. coli and Salmonella. They are large amphipathic glycoconjugates that typically consist of a lipid domain (hydrophobic) attached to a core oligosaccharide and a distal polysaccharide. LPS binds to Toll-like receptor 4 (TLR4) and activates microglia(98) which in turn increases secretion of pro-inflammatory cytokines such as interleukin-6 (IL-6), tumor necrosis factor-α (TNF-α), and CXCL1/GROα.
(§6) Microglia cells were obtained from an iCell® Microglia kit, 01279 (Catalogue N^o R1131) from FUJIFILM Cellular Dynamics. We followed the manufacturer's protocol for activation of the microglial cells with LPS/ATP to subsequently measure the effect of the study drugs on pro-inflammatory cytokines IL-6, TNF-α and CXCL1/GROα.
(§7) All cell culture procedures were performed in aseptic conditions, under a laminar flow hood. Microglia were thawed and cultured following the provider's instructions. The microglia were plated at 50,000 cells per well of a Corning Primaria 96 well plate (Ref N^o 353872) in 100 μL of growth medium. Cells were incubated at 37° C./5% CO2 in a humidified cell culture incubator.
(§8) Three days after cell plating, the test or reference substances (25 μL of solutions at 5×) were applied 1 hour before LPS and ATP stimulation.
(§9) One hour later, 12.5 μL of test or reference substances were added again at 2× concentrated followed by 12.5 μL of LPS at 12× concentration. Fifty microliters of ATP were introduced at 4× concentration, 5 h 30 min after incubation with LPS.
(§10) Six hours after LPS incubation, the supernatant of each well was collected and centrifugated at 1000 g for 10 minutes to remove the cells and debris.
(§11) Fifty microliters of supernatant from NT and LPS+ATP-treated wells were used to determine cytokine secretion (IL-6, TNF-α, CXCL1/GROα) by Luminex platform according to the provider's instructions. Samples were diluted prior to the assay to fit within the standard range if needed. Three wells were tested per each condition (Table 11). Cytokines levels in the supernatant were expressed in pg/mL. The data was analyzed using a One-Way ANOVA followed by Bonferroni test.

[5] = test system: TNF-α mediated neuroinflammation in microglial cells; assay: LPS/ATP-induced neuroinflammation in microglia: TNF-α secretion (Luminex); format: cell-based, human; conditions: for TNF-α in supernatant, Mean ± S.D. / TNF-α in supernatant, Replicate 1 / TNF-α in supernatant, Replicate 2 / TNF-α in supernatant, Replicate 3: LPS (100 ng/mL) + ATP (5 mM), six hours after LPS
From the text: as §4, §5, §6, §7, §8, §9, §10, §11

[6] = test system: CXCL1/GROα mediated neuroinflammation in microglial cells; assay: LPS/ATP-induced neuroinflammation in microglia: CXCL1/GROα secretion (Luminex); format: cell-based, human; conditions: for CXCL1/GROα in supernatant, Mean ± S.D. / CXCL1/GROα in supernatant, Replicate 1 / CXCL1/GROα in supernatant, Replicate 2 / CXCL1/GROα in supernatant, Replicate 3: LPS (100 ng/mL) + ATP (5 mM), six hours after LPS
From the text: as §4, §5, §6, §7, §8, §9, §10, §11

[7] = test system: HD patients; conditions: up to 15 g/day; cited from earlier work
[8] = test system: G93A transgenic ALS mice; conditions: mouse, in vivo; cited from earlier work
[9] = test system: Alzheimer's disease; conditions: cited from earlier work
[10] = test system: IL-1B; assay: LPS/ATP-induced neuroinflammation in microglia: IL-1B; format: cell-based, human; conditions: compared with […] distilled water in presence of LPS and ATP
[11] = Table 7.2, plate 1, with MPP+ 100 μM, 72 hours
[12] = compared with […] distilled water in presence of LPS and ATP

Row | SMILES | Neurite length, Mean ([1]; with MPP+ 100 μM, 72 hours) | Neurite Branching, Mean ± S.D. [1, 11] | Cytolysis, Mean ± S.D. ([2]; Table 9.1, plate 1) | IL-6 in supernatant, Mean ± S.D. [4] | IL-6 in supernatant, Replicate 1 [4] | IL-6 in supernatant, Replicate 2 [4] | IL-6 in supernatant, Replicate 3 [4] | TNF-α in supernatant, Mean ± S.D. [5] | TNF-α in supernatant, Replicate 1 [5] | TNF-α in supernatant, Replicate 2 [5] | TNF-α in supernatant, Replicate 3 [5] | CXCL1/GROα in supernatant, Mean ± S.D. [6] | CXCL1/GROα in supernatant, Replicate 1 [6] | CXCL1/GROα in supernatant, Replicate 2 [6] | CXCL1/GROα in supernatant, Replicate 3 [6] | Effect on IL-6 concentration (in words) [4, 12] | Effect on TNF-α concentration (in words) [5, 12] | Effect on IL-1B concentration (in words) [10] | further results
1 | O=C([O-])CCCc1ccccc1.[Na+] [PBA, Sodium 4-phenylbutyrate] | 1681.1 mm/mm^2 | 46742.8 ± 7107.5 per mm^2 | 72.06 ± 1.77% | 355.23 ± 45.97 pg/mL | 396.23 pg/mL | 363.94 pg/mL | 305.53 pg/mL | 33.46 ± 1.75 pg/mL | 32.67 pg/mL | 35.47 pg/mL | 32.24 pg/mL | 495.79 ± 122.99 pg/mL | 627.29 pg/mL | 383.60 pg/mL | 476.49 pg/mL | – | – | – | Increase of number of branch points compared with MPP+ alone (control/MPP+) ([1]; AUC, MPP+ 100 μM): 89%; Protective effect on neurite length and branching (in words) ([1]; MPP+ 100 μM): much less protective effect than combination 8; Neurite length - Baseline-corrected AUC (0-72 h), Mean ([1]; Table 5.1, plate 1, with MPP+ 100 μM): 853.7 mm/mm^2; Number of branch points per mm^2 - Baseline-corrected AUC (0-72 h), Mean ([1]; Table 5.2, plate 1, with MPP+ 100 μM): 41712.8 per mm^2; Neurofilament Heavy Chain signal intensity, mean [3]: 1.088; Decrease of IL-6 concentration [4, 12]: 49%; Decrease of TNF-α concentration [5, 12]: 44%; Safety and tolerability [7]: safe and well-tolerated; Survival [8]: significantly extended survival
2 | CC(C)[C@H](NC(=O)c1ccc2ccccc2n1)C(=O)N[C@@H](CC(=O)O)C(=O)COc1c(F)cccc1F [PCI/MPP+, Q-VD-OPh] | 1301.0 mm/mm^2 | 38456.3 ± 11570.7 per mm^2 | 65.56 ± 1.89% | – | – | – | – | – | – | – | – | – | – | – | – | – | – | – | Neurite length, Mean ± S.D. ([1]; Table 8.1, plate 2, with MPP+ 100 μM, 72 hours): 1430.1 ± 321.7 mm/mm^2; Neurite Branching, Mean ± S.D. ([1]; Table 8.2, plate 2, with MPP+ 100 μM, 72 hours): 52610.1 ± 16660.1 per mm^2; Cytolysis, Mean ± S.D. ([2]; Table 9.2, plate 2): 67.93 ± 3.52%
3 | Cc1cn(-c2cc(NC(=O)c3ccc(C)c(Nc4nccc(-c5cccnc5)n4)c3)cc(C(F)(F)F)c2)cn1 [nilotinib, Nilotinib] | – | – | – | – | – | – | – | – | – | – | – | – | – | – | – | – | – | – | Hippocampal volume loss attenuated ([9]; at 12 months): −27%; Safety ([9]; in vivo): safe
4 | CCOC(=O)C1=CCCC[C@H]1S(=O)(=O)Nc1ccc(F)cc1Cl [TAK-242] | – | – | – | 10.47 ± 0.00 pg/mL | <10.47 pg/mL | <10.47 pg/mL | <10.47 pg/mL | 5.63 ± 0.00 pg/mL | <5.63 pg/mL | <5.63 pg/mL | <5.63 pg/mL | 37.76 ± 6.05 pg/mL | 35.76 pg/mL | 32.96 pg/mL | 44.55 pg/mL | significantly decreased | significantly decreased | significantly decreased | Effect on GROα concentration (in words) [6, 12]: significantly decreased
5 | CC(C)(O)c1coc(S(=O)(=O)NC(=O)Nc2c3c(cc4c2CCC4)CCC3)c1 [MCC950] | – | – | – | 256.48 ± 40.04 pg/mL | 253.54 pg/mL | 297.91 pg/mL | 218.00 pg/mL | 30.95 ± 2.25 pg/mL | 29.44 pg/mL | 29.87 pg/mL | 33.53 pg/mL | 469.39 ± 82.91 pg/mL | 375.70 pg/mL | 499.15 pg/mL | 533.31 pg/mL | significantly decreased | significantly decreased | significantly decreased | –
